This is an account of results in patent US20040186273A1 (V.I. Technologies, Inc., priority 2000, published 2004).

Chain of prion from infected hamster brain spiked into plasma (P04273 23-231 limits assumed): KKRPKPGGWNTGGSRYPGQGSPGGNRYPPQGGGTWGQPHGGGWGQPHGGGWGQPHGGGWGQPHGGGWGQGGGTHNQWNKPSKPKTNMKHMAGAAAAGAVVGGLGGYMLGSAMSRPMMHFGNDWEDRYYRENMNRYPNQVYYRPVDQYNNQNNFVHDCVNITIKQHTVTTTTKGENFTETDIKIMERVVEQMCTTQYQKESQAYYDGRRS
Chain of prion from scrapie infected hamster brain (PrPsc) (P04273 23-231 limits assumed): as above

The first assay addresses prion from infected hamster brain spiked into plasma (Mesocricetus auratus, UniProt P04273).
Take IQIWIF [Peptide 110]: the “binding of prion to resin (prion signal in flow through)” value (shortened to “binding of prion to resin”) was “bound all prion”. Same read-out and setting: next, “acetyl (dF)LLHPI [Peptide 75, reference compound]”: “did not bind prion strongly enough to retain all detectable protein”; “acetylated (dR)YHVYF [Peptide 83, reference compound]”: “bound all prion”.

Another assay has as its target prion from scrapie infected hamster brain (PrPsc) (Mesocricetus auratus, UniProt P04273).
Turning to GFFFWW [Peptide 89], the “binding of prion to resin” value is listed as “bound all prion”.

For HHHPQT [Peptide 55], the “binding of prion to resin” value is “let prion flow through” and the “prion binding, dependence on copper” value is “appears to bind prion only in the absence of copper”. For IQIWIF [Peptide 110], the “binding of prion to resin” value is “bound to the column”. With RYHVYF [Peptide 71], the “binding of prion to resin” value is listed as “bound all prion”. YVFNWY [Peptide 87]: the “binding of prion to resin” value was “bound all prion”. The same measure, in the same setting: in the case of acetyl (dF)LLHPI [Peptide 76] it was “failed to bind all prion”.

The next assay deals with PrPc from normal brain homogenate (Mesocricetus auratus, UniProt P04273).
Chain of PrPc from normal brain homogenate (P04273 23-231 limits assumed): as above
For IFFWIK [Peptide 112], the “PrPc bound to resin (chemiluminescence signal, +3F4 vs -3F4)” value is recorded as “strongest binders”. Same read-out and setting: next, LLIWIP [Peptide 84]: “not stable enough to resist the washing protocol”; LRVIIS [Peptide 96]: “much larger signal than the controls”.

RWIISL [Peptide 113]: the “PrPc bound to resin (chemiluminescence signal, +3F4 vs -3F4)” value is recorded as “strongest binders”.

VFEYIK [Peptide 115]: the “PrPc bound to resin (chemiluminescence signal, +3F4 vs -3F4)” value is “strongest binders”. For WLVWIA [Peptide 116], the “PrPc bound to resin (chemiluminescence signal, +3F4 vs -3F4)” value is recorded as “strongest binders”. Same read-out and setting: next, WLYWIP [Peptide 85]: “not stable enough to resist the washing protocol”.
